The values below come from patent US20160193179A1, “Treatment of Cardiovascular Risk in Diabetic Patients” (EVOLVA SA, priority 2012, published 2016).

The subject of one data set is PARP cleavage in HUVEC. The data set can be described thus: PARP-1 cleavage (apoptosis) by western blot in HUVEC. It is filed as cell-based, human. As for the experimental part: FIGS. 3C and 3D show the effect of Compound 3 on PARP cleavage induced by TNFα in HUVEC after 6 h of incubation. C) Total protein extracts are recovered and analysed by western blot. β-actin serves as the loading control. D) Quantification of optical density of each band and expression of the ratio between the optical density of PARP cleavage and the total of PARP.
(§1) HUVEC are seeded at 187,500 cells/flask in gelatin-coated T75 in EGM. After 4 days, cell medium is replaced by EBM containing or not containing Compound 3 at different concentrations. After 1 h of preincubation, 1 ng/ml TNFα is added or is not added into the T75 flasks. 6 h after, cell media are collected and centrifuged at 500 g for 5 min to pellet and pool floating cells with adherent cells. Adherent cells are washed twice with cold PBS and are collected in 1.5 ml of PBS. Harvested cells are then centrifuged at 500 g for 5 min at 4° C. […] Protein concentration is measured using Pierce method (Pierce 660 nm protein assay, Thermoscientific, USA) with the Ionic Detergent Compatibility Reagent (Thermoscientific, USA). […] Antibody binding was analysed with the scanner Odyssey Image System (Li-COR, Biosciences, USA) and Odyssey V3.0 software. Optical density of each band is also determined by using the software.
On the technique in general: A western blot detects proteins with antibodies after separation by electrophoresis.

Another data set deals with T1, TP receptor (Homo sapiens, UniProt P21731).
T1 sequence (P21731 1-343): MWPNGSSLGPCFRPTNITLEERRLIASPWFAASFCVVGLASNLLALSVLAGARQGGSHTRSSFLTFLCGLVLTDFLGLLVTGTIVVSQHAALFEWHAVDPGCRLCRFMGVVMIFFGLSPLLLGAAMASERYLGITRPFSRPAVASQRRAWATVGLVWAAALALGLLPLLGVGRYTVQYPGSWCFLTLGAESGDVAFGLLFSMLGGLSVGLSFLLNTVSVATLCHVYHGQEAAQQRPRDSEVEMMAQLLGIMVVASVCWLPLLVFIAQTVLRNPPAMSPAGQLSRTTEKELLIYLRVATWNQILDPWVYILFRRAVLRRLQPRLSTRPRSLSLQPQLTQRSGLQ
As to conditions: 0.125 to 2.5 mg/kg; cited from earlier work.

The subject of data set [1] is VCAM-1 and ICAM-1 protein expression in HUVEC. The data set can be described thus: Western blot of VCAM-1 and ICAM-1 protein expression induced by TNFα in HUVEC. It is filed as cell-based, human. The following applies: TNFα 6 h, western blot normalised by β-actin. As for the experimental part:
FIGS. 2B and 2C show the effect of Compound 3 on VCAM-1 and ICAM-1 protein expression induced by TNFα in HUVEC after 6 h of incubation. B) Total protein extracts are recovered and analysed by western blot. β-actin serves as the loading control. C) Quantification of optical density of each band. Results are expressed as the ratio between the optical density of VCAM-1 or ICAM-1 and the optical density of β-actin.
as §1

As to `CC(C)(C)N.O=C(O)CC/C=C\C[C@@H]1CO[C@H](c2ccccc2Cl)O[C@@H]1c1ccccc1O` [Compound 3, tert-butylammonium (Z)-6-((2S,4S,5R)-2-(2-chlorophenyl)-4-(2-hydroxyphenyl)-1,3-dioxan-5-yl)hex-4-enoate], the “induction of apoptosis (PARP cleavage) by the compound itself” value with PARP cleavage in HUVEC (HUVEC 6 h, without TNFα) is reported as “does not induce apoptosis”. Besides, in the data set on PARP cleavage in HUVEC (HUVEC, TNFα 6 h, western blot), the “PARP cleavage induced by TNFα” value is recorded as “does not decrease”. In addition, the “TP receptor activation in vivo” value on TP receptor was “antagonize TP receptor activation in vivo”. Moreover, in data set [1], the “ICAM-1 protein expression induced by TNFα” value is listed as “no effect” and the “VCAM-1 protein expression induced by TNFα” value was “no effect”.
